# US20170333509A1, “MAILLARD REACTION PRODUCT-DECOMPOSING AGENT” (ARKRAY, Inc., priority 2016, published 2017)
# Tests used:
# [1] = AGEs Cross-Link Breaking Effect Confirmatory Test 1 (benzoic acid from PPD by reverse-phase HPLC); assay type: biochemical; settings: plant extract (hot water, 80° C.) or 10 mmol/L PTB : 10 mmol/L PPD : 0.2 mol/L phosphate buffer pH 7.4 = 5:1:4, 37° C., eight hours, n=3
# Method: The test was carried out according to the description in […] al. (Nature, 382, pp 275-278 (1996)). […] A plant extract, 10 mmol/L of PPD, and 0.2 mol/L of phosphate buffer solution (pH 7.4) were mixed together at a ratio of 5:1:4 and then were reacted at 37° C. for eight hours (n=3). After completion of the reaction, hydrochloric acid was added thereto to stop the reaction. […] The amount of benzoic acid contained in the reaction solution was determined by subtracting the amount of benzoic acid contained in the sample, which was measured separately. Since 1 mol of PPD produces 1 mol of benzoic acid, the cross-link breaking rate was calculated by the following formula. Cross-link breaking rate (%)={(A-B)/C}×100 A: The amount of benzoic acid contained in the reaction solution B: The amount of benzoic acid contained in the sample C: The amount of PPD provided for the reaction (the amount of the substrate) As a control, a test was carried out using 10 mmol/L of PTB instead of the plant extract.
# [2] = system: AGEs modified bovine serum albumin (AGE-BSA) cross-linked to collagen; experiment: AGEs Cross-Link Breaking Effect Confirmatory Test 2 (AGE-BSA cross-linked to collagen-coated microplate, ELISA); assay type: biochemical; settings: cross-link breaking reaction at 37° C. for 18 hours
# Method: The test was carried out according to the description in Sara Vasan et al. (Nature, 382, pp 275-278 (1996)).
# 300 μL/well of SuperBlock T20 (PBS) Blocking Buffer was added to a commercially available 96-well microplate precoated with collagen, which then was reacted at 37° C. for one hour. After the reaction, it was washed with 0.05% polyethylene (20) sorbitan monolaurate (Tween 20)/PBS(−), and then AGEs modified bovine serum albumin (AGE-BSA) was added to each well of the microplate, which then was subjected to a crosslinking reaction at 37° C. for four hours. After the reaction, it was washed with Tween 20/PBS(−). Thereafter, a plant extract was added to each well and thereby it was subjected to a cross-link breaking (cleaving) reaction at 37° C. for 18 hours. After that, it was washed with Tween 20/PBS(−) and a primary antibody (anti-albumin bovine serum rabbit-polyclonal) was added thereto, which then was reacted at room temperature for 30 minutes. […] As a reaction stop solution, 1N HCl was added thereto, and the absorbance at 450 nm (dominant wavelength)/630 nm (complementary wavelength) was measured with a microplate reader. The amount of AGE-BSA that remained was determined from a calibration curve in which the amount of AGE-BSA was varied. Furthermore, the AGE-BSA decomposition rate (Collagen cross-link decomposition rate) was determined using the following formula. […]
SMILES,Cross-Link Breaking Rate (%) (Mean Value ± Standard Deviation) [1],Collagen Cross-Link Decomposition Rate (%) (AGE-BSA decomposition rate) [2],"Amount of Remaining AGE-BSA ([2]; absorbance 450 nm/630 nm, calibration curve)"
"O=C(C[n+]1ccsc1)c1ccccc1.[Br-] [PTB, N-phenacylthiazolium bromide]",20.47 ± 0.29%,–,–
"O=C1O[C@H]2[C@@H]3OC(=O)c4cc(O)c(O)c(O)c4-c4c(O)c(O)c5oc(=O)c6c(c(O)c(O)c7oc(=O)c4c5c76)-c4c(cc(O)c(O)c4O)C(=O)OC[C@H]3OC(O)[C@@H]2OC(=O)c2cc(O)c(O)c(O)c2-c2c1cc(O)c(O)c2O (mixture of isomers) [Punicalagin, punicalagin]",–,65.7%,343.3 ng
